Results on 16 compounds are retold here after patent publication US10508109B2 (priority 2015, dated 2019).

Read-outs that look alike come from different tables or passages of the source.

One test deals with HFL1. The test is described as follows: Cell-based assay, anti-proliferative activity (Cell Counting Kit-8, 72 hours). As to conditions: read-out: IC50 (μM) HFL1. A digest of the protocol:
(§1)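 Growth inhibition is read by Cell Counting Kit-8 after three days of compound treatment. Test concentrations span 0, 1.5625, 3.125, 6.25, 12.5, 25, 50 and 100 micro-M, and IC50 serves as the anti-proliferative measure.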
(In general: Tetrazolium assays rely on reduction of a dye to a coloured formazan, in cell work by metabolically active cells.)

In the next test the test system is CCD-18Co. Described as above. As to conditions: read-out: IC50 (μM) CCD-18Co. In a few lines:
as §1

Another test has as its system HCT-116. The test is described as above. As to conditions: read-out: IC50 (μM) HCT-116. In a few lines: as §1
For another test, the system named is PC14. Described as above. As to conditions: read-out: IC50 (μM) PC14. In a few lines: as §1
For another test, the target named is SUV39H2 (Homo sapiens (Human), UniProt Q9H5I1). As to conditions: read-out: IC50 (μM) Suv 39H2 assay; enzyme assay.
The test system of the next test is A549. The test is described as follows: Cell-based assay, anti-proliferative activity (Cell Counting Kit-8, 72 hours). As to conditions: read-out: IC50 (μM) A549. In a few lines: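 IC50 values come from growth read-outs taken after the cells' exposure to each candidate inhibitor. Cells had been plated in 96-well microtiter plates beforehand.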
[1] abbreviates: Homo sapiens, HFL1 cells, Cell Counting Kit-8, 72 hours.
The mark [2] stands for this setting: Homo sapiens, CCD-18Co cells, Cell Counting Kit-8, 72 hours.
Where [3] appears, read: Homo sapiens, HCT-116 cells, Cell Counting Kit-8, 72 hours.
Setting [4] is: Homo sapiens, PC-14, PC14 cells, Cell Counting Kit-8, 72 hours.
Setting [5] is: Homo sapiens, A549 cells, Cell Counting Kit-8, 72 hours.
Where [6] appears, read: Homo sapiens, A549 cells, 72 hours, Cell Counting Kit-8.
[7] abbreviates: Homo sapiens, HFL1 cells, 72 hours, Cell Counting Kit-8.
[8] abbreviates: Homo sapiens, CCD-18Co cells, 72 hours, Cell Counting Kit-8.
[9] abbreviates: Homo sapiens, HCT-116 cells, 72 hours, Cell Counting Kit-8.
The mark [10] stands for this setting: Homo sapiens, PC-14, PC14 cells, 72 hours, Cell Counting Kit-8.

Sequence of SUV39H2 (Q9H5I1 whole entry): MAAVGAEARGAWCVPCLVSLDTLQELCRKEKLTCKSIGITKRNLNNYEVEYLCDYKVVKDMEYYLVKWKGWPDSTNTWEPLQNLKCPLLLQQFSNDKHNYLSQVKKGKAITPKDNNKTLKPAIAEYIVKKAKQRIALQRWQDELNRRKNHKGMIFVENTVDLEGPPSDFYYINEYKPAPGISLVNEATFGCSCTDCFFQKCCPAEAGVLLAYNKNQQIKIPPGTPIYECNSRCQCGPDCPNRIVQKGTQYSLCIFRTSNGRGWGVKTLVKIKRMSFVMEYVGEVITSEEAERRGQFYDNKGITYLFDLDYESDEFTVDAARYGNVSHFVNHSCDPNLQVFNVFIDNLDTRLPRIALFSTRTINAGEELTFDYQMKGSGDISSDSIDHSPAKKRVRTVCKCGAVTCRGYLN

With `COc1cc(OC)c(-c2cn3ccc(N4CCN(S(=O)(=O)C(C)C)CC4)nc3n2)cc1Cl` [Example 205, 2-(5-chloro-2,4-dimethoxyphenyl)-7-[4-(isopropylsulfonyl)piperazin-1-yl]imidazo[1,2-a]pyrimidine], the IC50 (usually the point on the concentration scale where inhibition reaches its midpoint) was 2 µM in the test on HFL1 (setting [1]); 3.1 µM in the test on CCD-18Co (setting [2]); 1.9 µM in the test on HCT-116 (setting [3]); 0.62 µM in the test with PC14 (setting [4]); 0.0291 µM on SUV39H2; 1.2 µM in the test on A549 (setting [5]).
As for `COc1cc(OC)c(-c2cn3ccc(N4CCN(CCN5CCCC5)CC4)cc3n2)cc1Cl` [Example 143, 2-(5-chloro-2,4-dimethoxyphenyl)-7-(4-(2-(pyrrolidin-1-yl)ethyl)piperazin-1-yl)imidazo[1,2-a]pyridine], the IC50 in the test on HFL1 (setting [1]) worked out at 8.5 µM; in the test with CCD-18Co (setting [2]), 2.7 µM; in the test with HCT-116 (setting [3]) it was 8.1 µM; in the test on PC14 (setting [4]), 4.4 µM; on SUV39H2, 0.0044 µM; in the test with A549 (setting [5]), 4 µM.
As to `CCCS(=O)(=O)N1CCN(c2ccn3cc(-c4cc(Cl)c(OC)cc4OC)nc3n2)CC1` [Example 191, 2-(5-chloro-2,4-dimethoxyphenyl)-7-[4-(propylsulfonyl)piperazin-1-yl]-imidazo[1,2-a]pyrimidine], the half-inhibitory concentration (IC50) in the test on HFL1 (setting [1]) came out at 2 µM; in the test on CCD-18Co (setting [2]), 3.2 µM; in the test with HCT-116 (setting [3]), 1.9 µM; in the test on PC14 (setting [4]) it was 1.5 µM; on SUV39H2, 0.0293 µM; in the test with A549 (setting [5]) it was 1.5 µM.
Take `COc1cc(OC)c(-c2cn3ccc(N[C@H]4CC[C@H](CN5CCN(Cc6ccccc6)CC5)CC4)cc3n2)cc1Cl` [Example 278, trans-N-(4-((4-benzylpiperazin-1-yl)methyl)cyclohexyl)-2-(5-chloro-2,4-dimethoxyphenyl)imidazo[1,2-a]pyridin-7-amine 2,2,2-trifluoroacetate]: the IC50 in the test on HFL1 (Homo sapiens, HFL1, 72 h) came out at 0.73 µM; in the test on CCD-18Co (Homo sapiens, CCD-18Co, 72 h) it was 1.2 µM; with HCT-116 (Homo sapiens, HCT-116, 72 h), 0.84 µM; in the test on PC14 (Homo sapiens, PC-14, 72 h), 1.3 µM; on SUV39H2, 0.0707 µM; in the test with A549 (setting [6]), 1.4 µM.
Take `COc1cc(OC)c(-c2cn3ccc(N4CCN(c5cccnc5)CC4)cc3n2)cc1Cl` [Example 296, 2-(5-chloro-2,4-dimethoxyphenyl)-7-(4-(pyridin-3-yl)piperazin-1-yl)imidazo[1,2-a]pyridine]: the IC50 in the test on HFL1 (setting [7]) worked out at 0.73 µM; in the test with CCD-18Co (setting [8]), 0.79 µM; in the test on HCT-116 (setting [9]) it was 0.56 µM; in the test with PC14 (setting [10]), 0.64 µM; at SUV39H2, 0.013 µM; with A549 (setting [6]), 0.66 µM.
With “1-(4-(2-(5-chloro-2-(3-(dimethylamino)propoxy)-4-methoxyphenyl)-imidazo[1,2-a]pyridin-7-yl)piperazin-1-yl)-2,2-dimethylpropan-1-one [Example 154]”, the IC50 in the test on HFL1 (HFL1 cells, Cell Counting Kit-8, 72 hours) turned out to be 4.3 µM; with CCD-18Co (CCD-18Co cells, Cell Counting Kit-8, 72 hours), 8.7 µM; in the test on HCT-116 (HCT-116 cells, Cell Counting Kit-8, 72 hours) it was 7.9 µM; with PC14 (PC14 cells, Cell Counting Kit-8, 72 hours), 8 µM; at SUV39H2 it was 0.0135 µM; in the test on A549 (A549 cells, Cell Counting Kit-8, 72 hours), 6.9 µM.
Take `COc1cc(OC)c(-c2cn3ccc(NC(=O)[C@@H](N)Cc4c[nH]c5ccccc45)cc3n2)cc1Cl` [Example 250, (S)-2-amino-N-(2-(5-chloro-2,4-dimethoxyphenyl)imidazo[1,2-a]pyridin-7-yl)-3-(1H-indol-3-yl)propanamide]: the IC50 with HFL1 (Homo sapiens, HFL1, 72 h) stood at 3.6 µM; with CCD-18Co (Homo sapiens, CCD-18Co, 72 h) it was 4 µM; in the test with HCT-116 (Homo sapiens, HCT-116, 72 h), 6.9 µM; with PC14 (Homo sapiens, PC-14, 72 h), 4.2 µM; on SUV39H2 it was 0.0427 µM; in the test with A549 (Homo sapiens, A549, 72 h), 6.6 µM.
On to `COc1cc(OC)c(-c2cn3ccc(N4CCC(NC(C)=O)C4)nc3n2)cc1Br` (stereo not drawn) [Example 66], for which the IC50 in the test with HFL1 (setting [1]) turned out to be 26 µM; with CCD-18Co (setting [2]), 27 µM; in the test on HCT-116 (setting [3]), 18 µM; with PC14 (setting [4]), 16 µM; at SUV39H2, 0.00747 µM; in the test with A549 (setting [5]), 25 µM.
Consider `CC[C@H](C)[C@H](NC)C(=O)Nc1ccn2cc(-c3cc(Cl)c(OC)cc3OC)nc2c1` [Example 266, (2S,3S)—N-(2-(5-chloro-2,4-dimethoxyphenyl)imidazo[1,2-a]pyridin-7-yl)-3-methyl-2-(methylamino)pentanamide], for which the IC50 in the test with HFL1 (setting [7]) came out at 1.2 µM; in the test on CCD-18Co (setting [8]), 1.3 µM; in the test with HCT-116 (setting [9]) it was 2.8 µM; in the test on PC14 (setting [10]), 1.5 µM; at SUV39H2, 0.0454 µM; in the test on A549 (setting [6]), 1.5 µM.
On to `COc1cc(OC)c(-c2cn3cc(NCCNC(C)=O)c(N4CCOCC4)cc3n2)cc1Cl` [Example 224, N-(2-((2-(5-chloro-2,4-dimethoxyphenyl)-7-morpholinoimidazo[1,2-a]-pyridin-6-yl)amino)ethyl)acetamide], for which the IC50 in the test with HFL1 (Homo sapiens, HFL1, 72 h) amounted to 10 µM; with CCD-18Co (Homo sapiens, CCD-18Co, 72 h), 10 µM; with HCT-116 (Homo sapiens, HCT-116, 72 h), 10 µM; in the test on PC14 (Homo sapiens, PC-14, 72 h) it was 10 µM; at SUV39H2 it was 0.0337 µM; with A549 (Homo sapiens, A549, 72 h), 10 µM.
Regarding `COc1cc(OC)c(-c2cn3ccc(N4CCN(c5ccnc(N6CCOCC6)n5)CC4)cc3n2)cc1Cl` [Example 294, 4-(4-(4-(2-(5-chloro-2,4-dimethoxyphenyl)imidazo[1,2-a]pyridin-7-yl)-piperazin-1-yl)pyrimidin-2-yl)morpholine], the IC50 with HFL1 (setting [7]) worked out at 2.3 µM; in the test on CCD-18Co (setting [8]) it was 1.3 µM; in the test with HCT-116 (setting [9]), 0.78 µM; in the test on PC14 (setting [10]), 1 µM; on SUV39H2 it was 0.0283 µM; with A549 (setting [6]), 1.1 µM.
In the case of `CCOP(=O)(CCN1CCN(c2ccn3cc(-c4cc(Cl)c(OC)cc4OCCCN(C)C)nc3c2)CC1)OCC` [Example 219, diethyl (2-(4-(2-(5-chloro-2-(3-(dimethylamino)propoxy)-4-methoxyphenyl)-imidazo[1,2-a]pyridin-7-yl)piperazin-1-yl)ethyl)phosphonate], the IC50 with HFL1 (setting [7]) worked out at 7.4 µM; in the test with CCD-18Co (setting [8]) it was 10 µM; in the test on HCT-116 (setting [9]), 10 µM; in the test with PC14 (setting [10]), 7.6 µM; on SUV39H2, 0.0201 µM; with A549 (setting [6]) it was 10 µM.
With `COc1cc(OCCCN(C)C)c(-c2cn3ccc(N4CCC(NS(=O)(=O)C5CC5)CC4)cc3n2)cc1Cl` [Example 163, N-(1-(2-(5-chloro-2-(3-(dimethylamino)propoxy)-4-methoxyphenyl)imidazo-[1,2-a]pyridin-7-yl)piperidin-4-yl)cyclopropanesulfonamide], the IC50 in the test with HFL1 (setting [1]) came to 2.7 µM; in the test on CCD-18Co (setting [2]), 5.6 µM; in the test on HCT-116 (setting [3]) it was 5.9 µM; in the test with PC14 (setting [4]) it was 3.4 µM; at SUV39H2, 0.0206 µM; in the test on A549 (setting [5]), 6.4 µM.
“4-(2-(5-chloro-2,4-dimethoxyphenyl)imidazo[1,2-a]pyridin-7-yl)-N-(pyrrolidin-2-ylmethyl)benzamide [Example 249]”: the IC50 was found to be 5.4 µM with HFL1 (HFL1 cells, 72 hours, Cell Counting Kit-8); 5.2 µM in the test on CCD-18Co (CCD-18Co cells, 72 hours, Cell Counting Kit-8); 3.7 µM in the test on HCT-116 (HCT-116 cells, 72 hours, Cell Counting Kit-8); 4.8 µM with PC14 (PC14 cells, 72 hours, Cell Counting Kit-8); 0.035 µM on SUV39H2; 5.4 µM in the test with A549 (A549 cells, 72 hours, Cell Counting Kit-8).
For the compound `CCS(=O)(=O)N1CCN(c2ccn3cc(-c4cc(Cl)c(OC)cc4OC)nc3n2)CC1` [Example 190, 2-(5-chloro-2,4-dimethoxyphenyl)-7-[4-(ethylsulfonyl)piperazin-1-yl]imidazo[1,2-a]pyrimidine], the IC50 with HFL1 (setting [1]) was 2.7 µM; with CCD-18Co (setting [2]) it was 4.5 µM; with HCT-116 (setting [3]), 2.3 µM; in the test on PC14 (setting [4]), 1 µM; on SUV39H2 it was 0.0306 µM; in the test with A549 (setting [5]), 1.8 µM.
Take `COc1cc(OC)c(-c2nc3cc(N4CCN(C(=O)OC(C)(C)C)CC4)ccn3c2Br)cc1Cl` [Example 271, tert-butyl 4-(3-bromo-2-(5-chloro-2,4-dimethoxy-phenyl)imidazo[1,2-a]pyridin-7-yl)piperazine-1-carboxylate]: the IC50 was 1.2 µM in the test on HFL1 (setting [7]); 1.4 µM in the test with CCD-18Co (setting [8]); 1.5 µM in the test with HCT-116 (setting [9]); 0.57 µM in the test with PC14 (setting [10]); 0.0267 µM at SUV39H2; 1.3 µM in the test on A549 (setting [6]).
